# Activity calls are given as the source filed them.
# What was measured:
# Assay type in all cases: functional
# Protein Tat = target: T1, Protein Tat (Human immunodeficiency virus type 1 group M subtype B (isolate HXB2)(HIV-1), UniProt P04608);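 also: tat binding to TAR RNA read out by fluorescence polarization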
# T1 sequence (P04608 whole entry): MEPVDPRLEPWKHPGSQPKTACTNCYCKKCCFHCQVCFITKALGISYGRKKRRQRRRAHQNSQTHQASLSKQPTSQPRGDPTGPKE
# [1] = target: T2, Type-1 angiotensin II receptor (Homo sapiens, UniProt P30556); assay: AT1 receptor agonists, dose response, selectivity assay for APJ receptor agonist project, cell-based, uHTS hits (AID 488865);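 also: beta-arrestin recruitment to AT1 measured by enzyme fragment complementation luminescence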
# T2 sequence (P30556 whole entry): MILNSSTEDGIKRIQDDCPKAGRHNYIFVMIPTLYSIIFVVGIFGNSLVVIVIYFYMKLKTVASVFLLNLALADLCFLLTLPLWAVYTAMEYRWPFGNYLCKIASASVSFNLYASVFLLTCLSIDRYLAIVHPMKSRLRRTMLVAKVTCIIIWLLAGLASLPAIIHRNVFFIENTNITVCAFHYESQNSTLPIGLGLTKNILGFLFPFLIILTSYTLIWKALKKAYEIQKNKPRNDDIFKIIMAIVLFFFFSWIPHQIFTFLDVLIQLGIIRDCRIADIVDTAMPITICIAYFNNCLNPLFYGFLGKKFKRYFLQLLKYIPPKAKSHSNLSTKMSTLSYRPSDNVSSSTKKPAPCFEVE
# [2] = target: Eukaryotic translation initiation factor 4H (Homo sapiens, UniProt Q15056); assay: eIF4H inhibition in translation initiation, SAR follow-up (AID 435011)
# [3] = target: Polyadenylate-binding protein 1 (Homo sapiens, UniProt P11940); assay: PABP inhibition in translation initiation, SAR follow-up (AID 435018)
# Polyadenylate-binding protein 1, sequence (P11940 whole entry): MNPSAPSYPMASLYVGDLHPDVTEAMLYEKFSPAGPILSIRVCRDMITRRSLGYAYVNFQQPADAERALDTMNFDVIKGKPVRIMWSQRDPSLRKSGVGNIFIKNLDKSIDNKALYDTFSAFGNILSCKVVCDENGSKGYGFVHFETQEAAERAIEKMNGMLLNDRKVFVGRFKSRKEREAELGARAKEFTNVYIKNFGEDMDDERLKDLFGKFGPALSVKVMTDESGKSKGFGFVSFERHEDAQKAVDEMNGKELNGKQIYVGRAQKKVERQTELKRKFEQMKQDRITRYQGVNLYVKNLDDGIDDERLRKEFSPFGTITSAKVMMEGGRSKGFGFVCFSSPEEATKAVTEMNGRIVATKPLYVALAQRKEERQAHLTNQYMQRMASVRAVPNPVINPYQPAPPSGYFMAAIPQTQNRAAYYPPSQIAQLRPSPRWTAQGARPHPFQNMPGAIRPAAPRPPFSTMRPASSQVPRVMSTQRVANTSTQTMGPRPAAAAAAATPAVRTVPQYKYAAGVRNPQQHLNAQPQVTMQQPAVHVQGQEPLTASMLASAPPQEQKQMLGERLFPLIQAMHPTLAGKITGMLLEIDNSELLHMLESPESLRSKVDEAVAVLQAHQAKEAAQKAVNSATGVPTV
# [4] = target: DNA dC->dU-editing enzyme APOBEC-3G (Homo sapiens, UniProt Q9HC16);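 also: Dose-response counterscreen measuring inhibition of APOBEC3G DNA deaminase activity, run while confirming APOBEC3A inhibitors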
# DNA dC->dU-editing enzyme APOBEC-3G, sequence (Q9HC16 whole entry): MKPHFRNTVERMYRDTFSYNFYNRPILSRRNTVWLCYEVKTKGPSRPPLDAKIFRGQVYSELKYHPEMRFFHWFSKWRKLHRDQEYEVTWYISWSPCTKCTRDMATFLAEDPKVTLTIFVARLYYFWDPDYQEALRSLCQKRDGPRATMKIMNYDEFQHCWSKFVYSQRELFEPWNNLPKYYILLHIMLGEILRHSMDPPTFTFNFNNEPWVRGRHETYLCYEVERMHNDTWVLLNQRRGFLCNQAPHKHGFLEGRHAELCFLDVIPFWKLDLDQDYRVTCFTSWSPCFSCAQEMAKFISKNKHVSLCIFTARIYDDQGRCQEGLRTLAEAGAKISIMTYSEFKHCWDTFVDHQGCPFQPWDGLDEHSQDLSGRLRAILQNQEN
# [5] = target: DNA dC->dU-editing enzyme APOBEC-3A (Homo sapiens, UniProt P31941); assay: Dose Response confirmation of small molecule APOBEC3A DNA Deaminase Inhibitors via a fluorescence-based single-stranded DNA deaminase assay. [Related pubchem assays (depositor defined):AID493011, AID493024]
# DNA dC->dU-editing enzyme APOBEC-3A, sequence (P31941 whole entry): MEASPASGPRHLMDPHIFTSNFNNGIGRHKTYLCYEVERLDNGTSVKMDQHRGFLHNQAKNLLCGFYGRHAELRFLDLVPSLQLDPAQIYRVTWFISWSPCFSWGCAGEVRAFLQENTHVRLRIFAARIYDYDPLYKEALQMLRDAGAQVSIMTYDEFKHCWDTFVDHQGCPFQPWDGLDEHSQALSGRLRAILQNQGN
# [6] = target: Voltage-dependent T-type calcium channel subunit alpha-1H (Homo sapiens, UniProt O95180); assay: Cav3.2 T-type channel inhibitors, cell-based, synthetic library set 1, calcium flux (AID 493022)
# Voltage-dependent T-type calcium channel subunit alpha-1H, sequence (O95180 whole entry): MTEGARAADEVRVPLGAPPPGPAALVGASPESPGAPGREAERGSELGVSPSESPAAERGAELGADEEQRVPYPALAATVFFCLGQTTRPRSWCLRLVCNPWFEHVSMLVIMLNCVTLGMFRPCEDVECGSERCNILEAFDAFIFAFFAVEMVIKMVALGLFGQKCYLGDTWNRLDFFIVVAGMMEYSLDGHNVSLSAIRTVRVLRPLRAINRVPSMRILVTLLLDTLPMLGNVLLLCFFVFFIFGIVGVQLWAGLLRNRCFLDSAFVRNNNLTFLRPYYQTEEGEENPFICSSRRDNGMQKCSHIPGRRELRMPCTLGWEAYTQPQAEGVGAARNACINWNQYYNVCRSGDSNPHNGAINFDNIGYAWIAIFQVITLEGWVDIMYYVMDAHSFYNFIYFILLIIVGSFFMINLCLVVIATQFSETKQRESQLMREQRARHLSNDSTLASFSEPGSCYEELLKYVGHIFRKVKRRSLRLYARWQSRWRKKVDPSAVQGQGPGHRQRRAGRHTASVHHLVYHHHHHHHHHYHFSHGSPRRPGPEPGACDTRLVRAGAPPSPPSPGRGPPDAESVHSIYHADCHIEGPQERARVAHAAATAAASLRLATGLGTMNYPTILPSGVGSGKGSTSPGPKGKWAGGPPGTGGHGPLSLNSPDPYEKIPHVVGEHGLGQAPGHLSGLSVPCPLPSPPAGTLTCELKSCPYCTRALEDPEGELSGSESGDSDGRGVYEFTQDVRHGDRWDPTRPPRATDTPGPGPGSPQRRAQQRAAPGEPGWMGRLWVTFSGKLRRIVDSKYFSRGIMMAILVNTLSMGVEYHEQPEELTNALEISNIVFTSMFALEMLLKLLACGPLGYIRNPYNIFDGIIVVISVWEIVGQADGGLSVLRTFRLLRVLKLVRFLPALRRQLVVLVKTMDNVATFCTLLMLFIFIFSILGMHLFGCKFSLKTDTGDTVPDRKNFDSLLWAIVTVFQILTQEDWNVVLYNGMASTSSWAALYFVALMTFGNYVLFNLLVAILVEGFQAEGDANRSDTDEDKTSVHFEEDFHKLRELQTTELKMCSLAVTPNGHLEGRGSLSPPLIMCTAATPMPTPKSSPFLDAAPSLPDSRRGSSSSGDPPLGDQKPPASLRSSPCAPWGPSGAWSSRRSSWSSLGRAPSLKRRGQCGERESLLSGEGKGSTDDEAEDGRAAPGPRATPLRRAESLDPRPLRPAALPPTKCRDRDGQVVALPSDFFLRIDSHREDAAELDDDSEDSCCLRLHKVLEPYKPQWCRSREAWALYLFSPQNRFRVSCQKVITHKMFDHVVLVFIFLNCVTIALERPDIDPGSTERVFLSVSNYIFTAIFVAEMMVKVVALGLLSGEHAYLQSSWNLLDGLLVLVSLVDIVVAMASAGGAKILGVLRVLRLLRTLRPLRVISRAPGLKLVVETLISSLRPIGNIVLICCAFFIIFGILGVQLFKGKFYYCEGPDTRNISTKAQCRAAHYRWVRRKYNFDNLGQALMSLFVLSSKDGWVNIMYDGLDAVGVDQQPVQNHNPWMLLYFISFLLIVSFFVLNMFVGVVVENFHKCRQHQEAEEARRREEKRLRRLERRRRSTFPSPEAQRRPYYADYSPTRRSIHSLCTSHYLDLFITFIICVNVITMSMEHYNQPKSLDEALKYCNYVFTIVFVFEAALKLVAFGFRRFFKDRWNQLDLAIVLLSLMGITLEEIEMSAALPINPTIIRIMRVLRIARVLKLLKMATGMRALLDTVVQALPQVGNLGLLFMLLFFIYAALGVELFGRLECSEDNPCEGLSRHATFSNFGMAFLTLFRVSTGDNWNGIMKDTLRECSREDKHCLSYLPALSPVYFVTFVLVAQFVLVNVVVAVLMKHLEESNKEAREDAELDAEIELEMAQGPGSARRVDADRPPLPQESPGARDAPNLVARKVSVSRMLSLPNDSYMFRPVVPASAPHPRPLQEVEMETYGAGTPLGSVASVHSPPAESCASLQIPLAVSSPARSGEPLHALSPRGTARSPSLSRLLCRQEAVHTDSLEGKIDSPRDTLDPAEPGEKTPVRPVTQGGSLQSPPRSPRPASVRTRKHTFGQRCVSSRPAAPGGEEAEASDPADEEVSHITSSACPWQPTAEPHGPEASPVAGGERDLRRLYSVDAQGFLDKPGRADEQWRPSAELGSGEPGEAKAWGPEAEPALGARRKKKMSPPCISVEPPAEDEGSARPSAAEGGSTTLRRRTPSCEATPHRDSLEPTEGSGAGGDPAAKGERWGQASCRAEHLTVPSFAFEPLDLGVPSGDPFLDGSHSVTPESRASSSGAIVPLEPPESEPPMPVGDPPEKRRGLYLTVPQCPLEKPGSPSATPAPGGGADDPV
compound,measurement,setting,value
COc1ccc2[nH]c(=O)c(CN(Cc3ccco3)C(c3nnnn3Cc3ccccc3)C(C)C)cc2c1 (configuration not stated),IC50,Protein Tat,> 100 µM (active)
same,EC50,[1],> 100 µM (inactive)
CCN1C(=O)CC(C(=O)Nc2ccc(F)cc2)S/C1=N\c1ccccc1OC (configuration not stated),IC50,[2],> 100 µM (inactive)
same,IC50,[3],> 100 µM (inactive)
Cc1n(Cc2ccccc2)c2ccc(Cl)cc2[n+]1C,IC50,[4],4.75 µM (active)
same,IC50,[5],2.46 µM (active)
O=C(COc1ccc(F)c(Cl)c1)Nc1nnc(-c2ccc(F)cc2)o1,EC50,[6],1.7 µM (active)
